For the series, the target named is Multidrug resistance-associated protein 1 (Homo sapiens, UniProt P33527). Put plainly: TP_TRANSPORTER: increase in Daunorubicin, Adriamycin and Vincristine intracellular accumulation (Daunorubicin: 4 ug/mL, Difloxacin: 62.5 uM) in HL-60/AR cells. The format is functional, cell-based.

Activity data for one compound are collected here from ChEMBL document CHEMBL2074401, “Difloxacin reverses multidrug resistance in HL-60/AR cells that overexpress the multidrug resistance-related protein (MRP) gene” (Oncol Res, 1995).

The structures appear in SMILES notation.

Chain of Multidrug resistance-associated protein 1 (P33527 whole entry): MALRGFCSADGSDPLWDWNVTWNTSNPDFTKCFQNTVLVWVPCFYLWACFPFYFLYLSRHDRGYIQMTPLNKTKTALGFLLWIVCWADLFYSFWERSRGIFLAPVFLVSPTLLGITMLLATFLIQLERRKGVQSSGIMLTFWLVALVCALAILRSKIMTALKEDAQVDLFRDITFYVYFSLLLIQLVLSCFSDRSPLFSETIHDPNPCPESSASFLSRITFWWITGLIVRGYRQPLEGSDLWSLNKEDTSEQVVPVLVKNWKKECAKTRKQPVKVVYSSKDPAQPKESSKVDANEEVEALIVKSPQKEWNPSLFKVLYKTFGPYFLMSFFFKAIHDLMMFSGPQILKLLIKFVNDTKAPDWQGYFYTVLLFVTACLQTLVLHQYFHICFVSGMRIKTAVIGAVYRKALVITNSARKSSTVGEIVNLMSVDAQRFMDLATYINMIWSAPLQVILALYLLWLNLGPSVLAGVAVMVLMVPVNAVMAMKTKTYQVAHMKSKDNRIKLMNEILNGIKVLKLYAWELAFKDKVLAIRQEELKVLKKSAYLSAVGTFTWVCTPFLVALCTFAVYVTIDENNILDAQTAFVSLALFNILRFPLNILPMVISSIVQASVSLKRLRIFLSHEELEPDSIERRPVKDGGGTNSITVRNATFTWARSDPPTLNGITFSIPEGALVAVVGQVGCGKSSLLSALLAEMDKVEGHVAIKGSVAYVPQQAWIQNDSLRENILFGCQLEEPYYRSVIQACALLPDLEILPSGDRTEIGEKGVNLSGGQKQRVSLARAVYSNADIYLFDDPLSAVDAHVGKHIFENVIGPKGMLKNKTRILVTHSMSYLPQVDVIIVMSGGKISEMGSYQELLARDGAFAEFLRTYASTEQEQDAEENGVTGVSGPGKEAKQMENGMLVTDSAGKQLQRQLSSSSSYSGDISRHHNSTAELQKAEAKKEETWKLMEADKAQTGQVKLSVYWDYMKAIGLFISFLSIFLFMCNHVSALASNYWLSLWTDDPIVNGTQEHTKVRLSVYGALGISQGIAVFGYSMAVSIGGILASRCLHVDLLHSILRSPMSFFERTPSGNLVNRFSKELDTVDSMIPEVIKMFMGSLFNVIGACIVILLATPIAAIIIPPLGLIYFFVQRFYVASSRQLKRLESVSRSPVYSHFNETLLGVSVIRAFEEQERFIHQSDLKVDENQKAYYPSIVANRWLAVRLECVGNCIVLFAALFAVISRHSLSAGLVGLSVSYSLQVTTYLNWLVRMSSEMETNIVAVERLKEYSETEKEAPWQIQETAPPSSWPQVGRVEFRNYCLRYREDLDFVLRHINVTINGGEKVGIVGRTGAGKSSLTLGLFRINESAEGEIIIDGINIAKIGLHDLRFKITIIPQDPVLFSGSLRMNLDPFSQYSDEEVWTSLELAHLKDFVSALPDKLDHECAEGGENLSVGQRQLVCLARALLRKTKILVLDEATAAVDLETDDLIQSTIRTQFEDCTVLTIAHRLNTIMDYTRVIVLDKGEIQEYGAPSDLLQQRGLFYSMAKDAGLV

Turning to `CN1CCN(c2cc3c(cc2F)c(=O)c(C(=O)O)cn3-c2ccc(F)cc2)CC1` [DIFLOXACIN], the Activity entry is “inhibitor [1.3 to 2.9-fold]”.
